Results on 3 compounds are retold here after DBAASP.

Test systems include Escherichia coli 078; Escherichia coli K88; Escherichia coli UB1005; Escherichia coli ER2566; Staphylococcus aureus.
Common to all, as to assay: ≥ marks a high value that may be exact or a test limit, other limits are often not marked, values filed in µg/mL are converted to µM
Test [1] deals with Pseudomonas aeruginosa ATCC 27853.
Test [2] deals with Klebsiella aerogenes ATCC 13048.
The test system of test [3] is Staphylococcus epidermidis ATCC 51625.
Test [4] has as its system Pseudomonas aeruginosa ATCC 19660.
Test [5] has as its system Acinetobacter baumannii ATCC 17978D-5.
In test [6] the test system is Staphylococcus aureus ATCC 33591.
Test [7] has as its system Enterococcus faecium ATCC 700221.
Test [8] has as its system Streptococcus pneumoniae ATCC 49619.
Test [9] deals with Bacillus subtilis ATCC 11060.
Test [10] has as its system Escherichia coli CVCC 1515.
The subject of test [11] is Staphylococcus epidermidis ATCC 12228.
For test [12], the system named is Pseudomonas aeruginosa ATCC 21630.
Test [13] relates to Pseudomonas aeruginosa ATCC 21625.
Test [14] deals with Salmonella enterica subsp. enterica serovar Typhimurium ATCC 14028.
The subject of test [15] is Salmonella enterica subsp. enterica serovar Typhimurium C77-31.
Test [16] deals with Pseudomonas aeruginosa ATCC 10419.
Test [17] deals with Staphylococcus aureus ATCC 29213.
Test [18] relates to Salmonella enterica subsp. enterica serovar Pullorum C79-13.
For test [19], the system named is Escherichia coli CMCC 44102.
Test [20] deals with Enterococcus faecalis ATCC 29212.
The subject of test [21] is Staphylococcus aureus ATCC 25923.
Test [22] deals with Escherichia coli ATCC 25922.
In test [23] the test system is Streptococcus mutans ATCC UA159.
For test [24], the system named is Candida albicans ATCC 5314.
In test [25] the test system is Streptococcus sanguinis ATCC 10556.

≈ marks a conversion by molar mass, not a printed value. Where “and” joins values, the source holds several entries; their conditions need not be identical. Equal values may be shown once.

What is called MIC is the smallest concentration in the dilution series that meets the test's criterion for growth inhibition. High values mean weaker potency, low ones greater potency. Consider `CC[C@H](C)[C@H](NC(=O)[C@H](CCCCN)NC(=O)[C@@H]1CCCN1C(=O)[C@@H]1CCCN1C(=O)[C@H](CC(C)C)NC(=O)[C@H](CCCCN)NC(=O)[C@@H]1CCCN1C(=O)[C@@H]1CCCN1C(=O)[C@H](Cc1ccccc1)NC(=O)[C@H](Cc1ccccc1)NC(=O)[C@@H]1CCCN1C(=O)[C@@H]1CCCN1C(=O)[C@@H]1CCCN1C(=O)[C@H](CCCCN)NC(=O)[C@@H]1CCCN1C(=O)[C@H](CCCCN)NC(=O)[C@@H]1CCCN1C(=O)[C@H](CC(C)C)NC(=O)[C@H](Cc1ccc(O)cc1)NC(=O)[C@@H]1CCCN1C(=O)[C@@H]1CCCN1C(=O)[C@H](CCCCN)NC(=O)[C@@H]1CCCN1C(=O)[C@H](CCCCN)NC(=O)[C@H](CCCCN)NC(=O)[C@@H](N)CCCCN)C(=O)O` [KKKPKPPYLPKPKPPPFFPPKLPPKI], for which the MIC in [1] is over 21.3 µM; in [2], 21.3 µM (≈ 64 µg/mL); in test [3], 21.3 µM (≈ 64 µg/mL); in test [4], 21.3 µM (≈ 64 µg/mL); in test [5], 21.3 µM (≈ 64 µg/mL); in [6], 21.3 µM (≈ 64 µg/mL). The MIC in test [7] and in test [8] was 21.3 µM (≈ 64 µg/mL) each time.

As to `CC[C@H](C)[C@H](NC(=O)[C@H](CCCCN)NC(=O)[C@H](CCCCN)NC(=O)[C@H](CC(C)C)NC(=O)[C@H](CCCN=C(N)N)NC(=O)[C@H](Cc1c[nH]c2ccccc12)NC(=O)[C@H](CCCN=C(N)N)NC(=O)[C@@H](NC(=O)[C@H](CCCCN)NC(=O)[C@H](Cc1c[nH]c2ccccc12)NC(=O)[C@H](CCCN=C(N)N)NC(=O)[C@H](CC(C)C)NC(=O)[C@H](CCCN=C(N)N)NC(=O)[C@H](CCCN=C(N)N)NC(=O)[C@H](Cc1ccccc1)NC(=O)[C@@H](N)CCCN=C(N)N)[C@@H](C)O)C(=O)N[C@H]1CSSC[C@@H](C(=O)N[C@H](C(N)=O)C(C)C)NC(=O)[C@H](C(C)C)NC(=O)[C@@H]2CSSC[C@H](NC(=O)[C@H](Cc3ccc(O)cc3)NC1=O)C(=O)N[C@@H](CCCN=C(N)N)C(=O)N[C@@H](CCCN=C(N)N)C(=O)N[C@@H](CCCN=C(N)N)C(=O)N[C@@H](Cc1ccccc1)C(=O)N2` [RFRRLRWKTRWRLKKICYCRRRFCVCV], the minimum inhibitory concentration (MIC) in test [1] worked out at 4.01 µM (≈ 14.8 µg/mL); in test [9], 2.01 µM (≈ 7.39 µg/mL); in test [10], 4.01 µM (≈ 14.8 µg/mL); in test [11] it was 2.01 µM (≈ 7.39 µg/mL); in test [12], 2.01 µM (≈ 7.39 µg/mL); in test [13], 4.01 µM (≈ 14.8 µg/mL). Also, the MIC worked out at 2.01 µM (≈ 7.39 µg/mL) in [14]; 4.01 µM (≈ 14.8 µg/mL) in [15]; 4.01 µM (≈ 14.8 µg/mL) in test [16]; 4.01 µM (≈ 14.8 µg/mL) in the test on Escherichia coli 078; 2.01 µM (≈ 7.39 µg/mL) in test [17]; 4.01 µM (≈ 14.8 µg/mL) in test [18]. Besides, the MIC in test [19] was found to be 0.515 µM (≈ 1.9 µg/mL); in the test on Escherichia coli K88, 0.515 µM (≈ 1.9 µg/mL); in the test with Escherichia coli UB1005, 2.01 µM (≈ 7.39 µg/mL); in test [20], 1 µM (≈ 3.69 µg/mL); in [21], 8.02 µM (≈ 29.6 µg/mL); with Escherichia coli ER2566 it was 1 µM (≈ 3.69 µg/mL). For the same compound, the minimum inhibitory concentration (MIC) in test [22] was 1 µM and 2.01 µM.

With `CC[C@H](C)[C@H](NC(=O)[C@H](CCCCN)NC(=O)[C@H](CCCN=C(N)N)NC(=O)[C@@H](NC(=O)[C@@H](N)Cc1ccc(O)cc1)[C@@H](C)CC)C(=O)N[C@@H](CCCN=C(N)N)C(=O)N[C@@H](CCCN=C(N)N)C(=O)N[C@@H](Cc1ccccc1)C(=O)N[C@@H](Cc1ccccc1)C(=O)N[C@@H](CCCCN)C(=O)N[C@@H](CCCCN)C(=O)N[C@@H](CCCN=C(N)N)C(=O)N[C@@H](Cc1ccccc1)C(=O)N[C@@H](CCCCN)C(=O)N[C@@H](Cc1ccccc1)C(=O)N[C@@H](CCCN=C(N)N)C(=O)N[C@@H](CCCCN)C(=O)N[C@@H](CCCCN)C(N)=O` [YIRKIRRFFKKRFKFRKK], the MIC in [23] was found to be 6.28 µM (≈ 16 µg/mL); with Staphylococcus aureus, 12.6 µM (≈ 32 µg/mL); in [24], 12.6 µM (≈ 32 µg/mL); in [25], 25.1 µM (≈ 64 µg/mL); in test [21], 25.1 µM (≈ 64 µg/mL).
